According to article PMC5771047 (Current Neuropharmacology, 2017):
Where “and” joins values, the source holds several entries; their conditions need not be identical. Equal values may be shown once. Read-outs that look alike come from different tables or passages of the source.

Legend:
[1] = mice (n = 5), exposure to Magic Gold smoke (3.6% JWH-018, 5.7% JWH-073); cited from earlier work
[2] = for concentration at 6 h: pig, iv, 200 µg/kg BW
[3] = pigs, previous study; cited from earlier work
[4] = human fatal case, cited from earlier work
[5] = cited from earlier work
[6] = one human decedent of five postmortem cases; cited from earlier work
[7] = pigs, 6 h after single i.v. 200 µg/kg BW

**Q.** For `CCCCCn1cc(C(=O)c2cccc3ccccc23)c2ccccc21` [JWH-018, naphthalen-1-yl-(1-pentylindol-3-yl)methanone], which “Concentration in brain specimens twenty hours post-exposure” value [1] is on record?
**A.** 19 ± 9 ng/g

**Q.** For `CCCCCn1cc(C(=O)c2ccc(CC)c3ccccc23)c2ccccc21` [JWH-210, 4-ethylnaphthalen-1-yl-(1-pentylindol-3-yl)methanone], which concentration at 6 h ([2]; bile) is on record?
**A.** 26 ± 19 ng/g

**Q.** And the concentration at 6 h ([2]; brain (cerebellum))?
**A.** 32 ± 9 ng/g

**Q.** And the concentration at 6 h ([2]; brain (cerebrum))?
**A.** 20 ± 6.8 ng/g

**Q.** What about the concentration at 6 h ([2]; dura) of the same molecule?
**A.** 1.7 ± 0.8 ng/g

**Q.** And the concentration at 6 h ([2]; heart)?
**A.** 19 ± 6.1 ng/g

**Q.** What about the concentration at 6 h ([2]; kidney (left)) of the same molecule?
**A.** 43 ± 34 ng/g

**Q.** And the concentration at 6 h ([2]; kidney (right))?
**A.** 53 ± 45 ng/g

**Q.** And the concentration at 6 h ([2]; liver)?
**A.** 14 ± 6.2 ng/g

**Q.** And the concentration at 6 h ([2]; lung (left))?
**A.** 8.6 ± 4.4 ng/g

**Q.** What about the concentration at 6 h ([2]; lung (right)) of the same molecule?
**A.** 6.9 ± 2.1 ng/g

**Q.** And the concentration at 6 h ([2]; psoas muscle)?
**A.** 20 ± 9.5 ng/g

**Q.** And the concentration at 6 h ([2]; skeletal muscle)?
**A.** 21 ± 8 ng/g

**Q.** And the concentration at 6 h ([2]; spleen)?
**A.** 11 ± 6.8 ng/g

**Q.** What about the “Detection in vitreous humor (qualitative analysis)” value [2, 7] of the same molecule?
**A.** positive results

**Q.** And the “Serum concentration six hours after administration” value [3]?
**A.** 3.1 ± 1.1 ng/mL

**Q.** For `CCc1ccc(C(=O)c2cn(CCCCC(=O)O)c3ccccc23)c2ccccc12` [JWH-210-COOH, JWH-210-pentanoic acid], which “Concentration in kidney specimens, individual cases” value ([2]; pigs, 6 h after i.v. 200 µg/kg BW JWH-210, detectable in two cases) is on record?
**A.** 0.5 ng/g and 1 ng/g

**Q.** What does the source list for `Cc1ccc(C(=O)c2cn(CCCCCF)c3ccccc23)c2ccccc12` [MAM-2201]?
**A.** Concentration in adipose tissue ([4]; postmortem interval about four days): 1,535 ng/g; Concentration in brain ([4]; postmortem): 4.3 ng/g; Concentration in heart blood ([4]; postmortem): 12.4 ng/mL; Concentration in kidney ([4]; postmortem): 11.2 ng/g; Concentration in liver ([4]; postmortem): 18.1 ng/g

**Q.** With `COc1ccc(C(=O)c2cn(CCCCC(=O)O)c3ccccc23)cc1` [RCS-4-COOH, RCS-4-pentanoic acid] as the molecule, how does the “Concentration in bile fluid, individual pigs” value ([2]; pigs, 6 h after i.v. 200 µg/kg BW RCS-4, two pigs) read?
**A.** 47 ng/g and 154 ng/g

**Q.** Which results are given for `CCCCCc1cc(O)c2c(c1)OC(C)(C)[C@@H]1CCC(C)=C[C@@H]21` [THC, ∆9-tetrahydrocannabinol]?
**A.** LogP [5]: 6.7; concentration at 6 h ([2]; bile): 77 ± 83 ng/g; concentration at 6 h ([2]; brain (cerebellum)): 24 ± 5.8 ng/g; concentration at 6 h ([2]; brain (cerebrum)): 12 ± 3.8 ng/g; concentration at 6 h ([2]; heart): 17 ± 7 ng/g; concentration at 6 h ([2]; kidney (left)): 24 ± 11 ng/g; concentration at 6 h ([2]; kidney (right)): 21 ± 16 ng/g; concentration at 6 h ([2]; liver): 18 ± 3.7 ng/g; concentration at 6 h ([2]; lung (left)): 61 ± 50 ng/g; concentration at 6 h ([2]; lung (right)): 69 ± 37 ng/g; concentration at 6 h ([2]; psoas muscle): 9.1 ± 3.3 ng/g; concentration at 6 h ([2]; skeletal muscle): 16 ± 0.94 ng/g; concentration at 6 h ([2]; spleen): 7.1 ± 3.8 ng/g; Detection in dura [2, 7]: not detected; Detection in vitreous humor (qualitative analysis) [2, 7]: not detected; Serum concentration six hours after administration [3]: 7.1 ± 4.3 ng/mL; Peak concentration in muscle tissue [6]: 40 ng/g

**Q.** What does the source list for hydroxypentyl-JWH-210 [HO-JWH-210]?
**A.** Concentration in abdominal adipose tissue, individual pig ([2]; pigs, 6 h after i.v. 200 µg/kg BW JWH-210, present in one pig only): 6 ng/g; Concentration in perirenal adipose tissue, individual pigs ([2]; pigs, 6 h after i.v. 200 µg/kg BW JWH-210, present in two pigs only): 4.5 ng/g and 9 ng/g

**Q.** Which LogP [5] does the source give for hydroxypentyl-RCS-4 [HO-RCS-4] here?
**A.** 4.08

**Q.** And the “Concentration in skeletal muscle, individual pigs” value ([2]; pigs, 6 h after i.v. 200 µg/kg BW RCS-4, only in two pigs)?
**A.** 5.7 ng/g and 1.6 ng/g
